Experimental data reported in US9796751B2, “Glycyrrhetinic acid derivative and use thereof” (INI CORPORATION, priority 2013, dated 2017).

What was measured:
LD50 test = settings: in vivo; read-out: LD50 (lethal dose 50%)
Source text: LD50 (lethal dose 50%) of the glycyrrhetinic acid derivative (the compound of the above formula (2)) of the disclosed embodiment and LD50 of carbenoxolone were compared.

physchem = type: physicochemical
[1] = Intracerebral migration after administration via various paths; type: in vivo, mice
Source text: In this respect, the presently disclosed embodiment has a significant effect.

[2] = system: C57BL/6J mouse with chronic constriction injury (CCI) of sciatic nerve; assay: Pain behavior test (mechanical allodynia), chronic constriction injury (CCI) of sciatic nerve, von Frey hair; type: in vivo; settings: once a day from 7th to 14th day after CCI operation, Gabapentin 30 mg/kg i.p.
Description: Chronic pain was caused by performing a chronic constriction injury (CCI) operation of sciatic nerve on a hind leg of a C57BL/6J mouse (8 week old, n=4 in each group). Threshold values of mechanical strength which indicated avoidance behavior were recorded by pressing a von Frey hair against the foot pad of the mouse's hind leg (from the previous day of the CCI operation to the 14th day after the operation).
Regarding drugs, the below drugs were administered once a day from the 7th day to the 14th day after the operation, and the therapeutic effects were studied. In this example, “Compound No. 37” is a compound represented by the above formula (2).
Control: the same volume of physiological saline
Gabapentin: 30 mg/kg, intraperitoneal administration
Compound No. 37: 100 mg/kg, subcutaneous administration
Compound No. 37: 20 mg/kg, subcutaneous administration
Compound No. 37: 20 mg/kg, intraperitoneal administration

[3] = system: glutamate concentration in cerebrospinal fluid; assay: Cerebrospinal fluid glutamate concentration determination (HPLC); type: in vivo, mouse; settings: 14th day after CCI operation, compared with Gabapentin group
Description: On the 14th day after the CCI operation, cerebrospinal fluid were collected from the foramen magnum of the above-mentioned mice, and the glutamate concentration was measured quantitatively with HPLC.

[4] = system: human superoxide dismutase 1 (SOD1) G93A mutant transgenic mice; assay: Survival extension effect in ALS acute-onset model mice (Kaplan-Meier); type: in vivo, mouse; settings: 20 mg/kg intraperitoneal three times a week from 7-8 weeks of age; p<0.05
Description: The assessment of drug efficacy was conducted using, as an animal model of neurodegenerative diseases, the human superoxide dismutase 1 (SOD1) G93A mutant transgenic mice, which are widely used as an acute-onset model of amyotrophic lateral sclerosis (ALS).
Starting at 7-8 weeks of age, which is considered to be an early ALS onset period, the mice were intraperitoneally administered with 20 mg/kg body weight of the glycyrrhetinic acid derivative of the disclosed embodiment (Compound No. 37 group) or the same volume of physiological saline (saline group) three times a week.
The survival analysis was performed using the Kaplan-Meier method.

[5] = system: human amyloid β1-42 peptide (Aβ) intraventricularly injected mice; assay: Fear conditioned learning test in Alzheimer's disease model mice; type: in vivo, mouse; settings: 20 mg/kg intraperitoneal three times a week; Aβ 300 pmol/3 μl intraventricular; vs physiological saline group; p<0.05
Description: The assessment of drug efficacy of the glycyrrhetinic acid derivative of the disclosed embodiment (Compound No. 37 group) was conducted using, as an animal model of neurodegenerative diseases, the human amyloid β1-42 peptide (Aβ) intraventricularly injected mice (Doi et al., Am J Pathol. 175 (5): 2121-32, 2009), which are widely used as an Alzheimer's disease model.
The mice were intraventricularly injected with 300 pmol/3 μl of Aβ, and from the day of the injection, they were intraperitoneally administered with 20 mg/kg body weight of the glycyrrhetinic acid derivative (Compound No. 37 group) of the disclosed embodiment or the same volume of physiological saline (vehicle group) three times a week. For control group was used wild type mouse (G57BL/6J) of the same age. Behavioral analysis was performed using the following fear conditioned learning test.
Associative learning was assessed using a fear conditioned learning test (Mouri et al., FASEB J. 21, 2135-2148, 2007; Nagai et al., FASEB J. 17, 50-52, and 2003). The mice were placed in a transparent acrylic cage with a stainless steel grid installed therein and were subjected to a 20 second tone stimulus (80 dB) and to an electric stimulus (0.6 mA) in the last 5 seconds. A set of this combination stimulus was repeated 4 times with 15 second intervals, thereby causing fear conditioning. […]

Row | SMILES | LD50 (LD50 test) [mg/kg] | logD (physchem) | delivery into brain ([1]; injected hypodermically, model mice) | delivery into brain ([1]; intraarterial injection) | reaching central nervous system and medicinal effect ([1]; intraperitoneal injection, model mice) | delivery into brain ([1]; intravenous injection) | pain threshold value compared to Gabapentin group ([2]; 20 mg/kg intraperitoneal) | pain threshold value compared to Gabapentin group ([2]; 100 mg/kg subcutaneous) | glutamate concentration in the cerebrospinal fluid ([3]; 20 mg/kg intraperitoneal) | glutamate concentration in the cerebrospinal fluid ([3]; 20 mg/kg subcutaneous) | glutamate concentration in the cerebrospinal fluid ([3]; 100 mg/kg subcutaneous) | extension of survival on average vs saline group [4] | freezing behavior time in the contextual dependency test (memory disorder improvement) [5]
1 | CC1(C)[C@@H](OC(=O)CCC(=O)O)CC[C@]2(C)[C@H]3C(=O)C=C4[C@@H]5C[C@@](C)(C(=O)O)CC[C@]5(C)CC[C@@]4(C)[C@]3(C)CC[C@@H]12 [carbenoxolone, reference compound] | 100 | – | – | – | – | – | – | – | – | – | – | – | –
2 | C[n+]1cccc(C(=O)N[C@H]2CC[C@]3(C)[C@H]4C(=O)C=C5[C@@H]6C[C@@](C)(C(=O)O)CC[C@]6(C)CC[C@@]5(C)[C@]4(C)CC[C@H]3C2(C)C)c1 [Compound No. 37] | > 5000 | 2.94 | is delivered into brain | delivered into brain | reach a central nervous system and exert a medicinal effect | delivered into brain | significant increases of pain threshold values | significant increases of pain threshold values | a decrease of the glutamate concentration in the cerebrospinal fluid, which was equal to or more than that shown in Gabapentin group | a decrease of the glutamate concentration in the cerebrospinal fluid, which was equal to or more than that shown in Gabapentin group | a decrease of the glutamate concentration in the cerebrospinal fluid, which was equal to or more than that shown in Gabapentin group | about 17 days | significantly moderated the observed reduction in freezing behavior time
